Data from patent publication US5258371A, “Method to reduce connective tissue destruction” (Kuraray Co., Ltd., priority 1992, dated 1993).
Each block holds one compound with its values, some of them ahead of it.

Key:
[1] = test system: articular cartilage in rabbit osteoarthritis models; assay: Test for suppression of destruction of articular cartilage using rabbit osteoarthritis models (partial lateral meniscectomy); type: in vivo, New Zealand white rabbit
Protocol: The tetracycline derivatives used in the present invention were tested for collagenase inhibition (in vitro), and for suppression of destruction of articular cartilage using rabbit osteoarthritis models (in vivo). The tetracycline derivatives tested were the mixture of DODMAT-2 and DODMAT-3 obtained in Synthesis Example 1 (hereinafter this mixture is referred to as "DODMAT mixture" and DOTC (mixture of isomers) obtained in Synthesis Example 2. DMAT was used as control.
The rabbit osteoarthritis models were made by the partial lateral meniscectomy procedure according to the method of C. Colombo et al [Arthritis Rheum., 26, 875 (1983)]. Adult male New Zealand white rabbits weighing approximately 3 kg each were used. The animals were anesthetized by intramuscular injection of 40 mg/kg Ketamine and 1.6 mg/kg Xylazine before surgery. The surgery was conducted as follows; the right knee was opened laterally, the fibular collateral ligament was exposed and 3-4 mm were removed. Subsequently, 3-4 mm of the sesamoid ligament were removed, followed by removal of 4-5 mm of the anterior lateral area of the exposed meniscus. The capsule and skin were then sutured. Following surgery, each animal daily received intramuscular injection of 2 mg/kg/day Dibekacin sulfate for a week to be protected from infection. The animals were sustained on standard rabbit pellets and tap water ad libitum during experiment.
The test drug (DODMAT mixture) or vehicle began 1 week post-surgery and continued every 7 days per week for 5 weeks. DODMAT, suspended in a vehicle aqueous solution containing 1% methyl cellulose, 0.8% sodium chloride, and 0.1% polysorbate 80, was administered orally by gavage. […] The histologic slides were coded and evaluated blind for 11 parameters, which are set forth in Table 2, using a scoring system of +1 to +4 for each type of abnormality as described by C. […] The data were analyzed by the one-sided Wilcoxon rank sum method.

collagenase [2] = target: T1, collagenase (Oryctolagus cuniculus, UniProt P13943); assay: Collagenase inhibition test (in vitro), decomposition of FITC-labelled collagen; type: biochemical, Japanese white rabbit; details: for IC50: collagenase from IL-1-stimulated rabbit chondrocyte culture supernatant, trypsin-activated, 35° C., 5% DMSO, read-out: Concentration of Drug Showing 50% Inhibition, IC50; for anti-collagenase activity (in words): refers to Test Example; for collagenase inhibition activity as a multiple of that of DMAT: relative to DMAT (control), from Table 1
T1 construct: endogenous in cells; host or cells: primary knee articular chondrocytes of Japanese white rabbit, stimulated with human recombinant interleukin-1 ('Interleukin-1a' in the source); culture supernatant
T1 sequence (P13943 99-468): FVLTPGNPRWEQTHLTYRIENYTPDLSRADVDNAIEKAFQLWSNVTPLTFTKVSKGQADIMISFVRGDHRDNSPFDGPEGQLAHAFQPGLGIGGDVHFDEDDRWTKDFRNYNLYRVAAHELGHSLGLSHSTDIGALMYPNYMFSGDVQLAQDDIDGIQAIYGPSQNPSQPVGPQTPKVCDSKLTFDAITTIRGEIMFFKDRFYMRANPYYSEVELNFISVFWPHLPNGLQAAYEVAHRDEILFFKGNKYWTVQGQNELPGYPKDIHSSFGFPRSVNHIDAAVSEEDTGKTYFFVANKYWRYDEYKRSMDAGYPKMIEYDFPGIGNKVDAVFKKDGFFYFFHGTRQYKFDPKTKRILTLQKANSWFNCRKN
Protocol: The tetracycline derivatives used in the present invention were tested for collagenase inhibition (in vitro), and for suppression of destruction of articular cartilage using rabbit osteoarthritis models (in vivo).
The knee articular cartilage of a Japanese white rabbit (4 weeks old) was aseptically taken out. The cartilage cells (chondrocytes) were separated according to the method of S. Collier et al [Ann. Rheum. […] In 30 ml of Ham's F12 culture medium (containing 10% fetal bovine serum) 4×10^6 cartilage cells were suspended and the medium was incubated at 37° C. in a 150 cm^2 incubation flask (made by Iwaki Glass Co., Japan) and under an air atmosphere containing 5% carbon dioxide. The medium was replaced every 3 to 4 days. When the cells propagated to the state of confluence (7 to 9 days after the start of incubation), the medium was replaced by Ham's F12 serum-free culture medium (30 units/ml of human recombinant Interleukin-1a made by Genzyme Co., USA) and 0.4% lactalbumin hydrolysate (made by Sigma Co., USA) and incubation was conducted for 4 days. The culture supernatant was taken and used as the collagenase solution to be tested.
The collagenase activity was expressed based on the decomposition of 1 μg of collagen at 35° C. in 1 minute being equal to 1 unit.
A solution of a drug to be tested was dissolved in dimethyl sulfoxide (DMSO), then was added to the collagenase assay solution. The final concentration of DMSO is 5%. The inhibition ratio of the drug was calculated based on the collagen decomposition activity without its addition being 100%.

collagenase [3] = details: J. Dent. Res., 66, 1310 (1987) and others; cited from earlier work
[4] = compared to tetracyclines; cited from earlier work
bone resorption = details: J. Dent. Res., 66, 1310 (1987) and others; cited from earlier work
collagenase [5] = details: periodontal diseases; J. Periodontal Res., 18, 516 (1983); cited from earlier work
rheumatoid arthritis = rheumatoid arthritis patients; J. Rheumatol., 17, 43 (1990); cited from earlier work

IC50 (collagenase [2]): 2.5 µM | anti-collagenase activity (in words) (collagenase [2]): excellent anti-collagenase activity | collagenase inhibition activity as a multiple of that of DMAT (collagenase [2]): at least 10 times
Compound: 4-dedimethylamino-12a-deoxytetracycline [DODMAT mixture]
Mean score of cartilage lesions ± S.E. ([1]; 15 mg/kg/day orally by gavage, 5 weeks from 1 week post-surgery, 9 animals, p < 0.05 (one-sided Wilcoxon rank sum), vehicle 46.6 ± 7.3 (7 animals)): 24.7 ± 3.3 | improvement resulting from treatment ([1]; cartilage lesion score versus vehicle, 15 mg/kg/day oral): at least 47% | suppression of destruction of articular cartilages (in words) ([1]; rabbit osteoarthritis models): significant suppression of destruction of articular cartilages

Compound: 12a-deoxytetracycline [DOTC]
IC50 (collagenase [2]): 22 µM | anti-collagenase activity (in words) (collagenase [2]): excellent anti-collagenase activity | collagenase inhibition activity as a multiple of that of DMAT (collagenase [2]): at least 10 times

Compound: C[C@@]1(O)c2cccc(O)c2C(=O)C2=C(O)[C@]3(O)C(=O)C(C(N)=O)=C(O)CC3CC21 (stereo partly drawn) [DMAT, 4-dedimethylaminotetracycline]
collagenase inhibition compared to tetracyclines (in words) (collagenase [3]): compares favorably to tetracyclines with respect to collagenase inhibition | antibacterial activity (in words) [4]: without the same antibacterial activity | suppression of bone resorption compared to tetracyclines (in words) (bone resorption): compares favorably to tetracyclines with respect to collagenase inhibition, suppression of bone resorption | IC50 (collagenase [2]): 300 µM

Compound: CN(C)c1ccc(O)c2c1C[C@H]1C[C@H]3[C@H](N(C)C)C(O)=C(C(N)=O)C(=O)[C@@]3(O)C(O)=C1C2=O [minocycline]
anti-collagenolytic activity (in words) (collagenase [5]): anti-collagenolytic activity | time after start of administration at which appreciable effects were observed (rheumatoid arthritis): 4 months
